{"source": "the supplement of paper PMC4862054", "settings_in_all_cases": "incubation time: 72 h", "key": {"MDA-MB-436 [1]": {"test_system": "MDA-MB-436", "test": "normalised response (% of control), CellTiter-Glo; higher = more viable cells (100 = DMSO, 0 = benzethonium chloride kill control)", "procedure,_shortened": "(§1)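 Two readouts were taken after 72 h: CellTox Green fluorescence (485/520 nm) first, then CellTiter-Glo luminescence after 10 min at room temperature. Breast cancer cell lines had been seeded as 20 µl suspension into 384-well plates holding compound at 5 concentrations in 10-fold steps across a compound-specific 10,000-fold range. Each value is a normalised signal at a single concentration, with plates scaled to 0.1 % DMSO (100) and a positive kill control (0).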"}, "DU-4475 [2]": {"test_system": "DU-4475", "test": "normalised response (% of control), CellTiter-Glo; higher = more viable cells (100 = DMSO, 0 = benzethonium chloride kill control)", "procedure,_shortened": "as §1"}, "HDQ-P1 [3]": {"test_system": "HDQ-P1", "test": "normalised response (% of control), CellTiter-Glo; higher = more viable cells (100 = DMSO, 0 = benzethonium chloride kill control)", "procedure,_shortened": "as §1"}, "SK-BR-3": {"test_system": "SK-BR-3", "test": "normalised response (% of control), CellTiter-Glo; higher = more viable cells (100 = DMSO, 0 = benzethonium chloride kill control)", "procedure,_shortened": "as §1"}, "MDA-MB-468 [4]": {"test_system": "MDA-MB-468", "test": "normalised response (% of control), CellTiter-Glo; higher = more viable cells (100 = DMSO, 0 = benzethonium chloride kill control)", "procedure,_shortened": "as §1"}, "MDA-MB-453 [5]": {"test_system": "MDA-MB-453", "test": "normalised response (% of control), CellTiter-Glo; higher = more viable cells (100 = DMSO, 0 = benzethonium chloride kill control)", "procedure,_shortened": "as §1"}, "CAL-120 [6]": {"test_system": "CAL-120", "test": "normalised response (% of control), CellTiter-Glo; higher = more viable cells (100 = DMSO, 0 = benzethonium chloride kill control)", "procedure,_shortened": "as §1"}, "CAL-148 [7]": {"test_system": "CAL-148", "test": "normalised response (% of control), CellTiter-Glo; higher = more viable cells (100 = DMSO, 0 = benzethonium chloride kill control)", "procedure,_shortened": "as §1"}, "CAL-51 [8]": {"test_system": "CAL-51", "test": "normalised response (% of control), CellTiter-Glo; higher = more viable cells (100 = DMSO, 0 = benzethonium chloride kill control)", "procedure,_shortened": "as §1"}, "MDA-MB-231 [9]": {"test_system": "MDA-MB-231", "test": "normalised response (% of control), CellTiter-Glo; higher = more viable cells (100 = DMSO, 0 = benzethonium chloride kill control)", "procedure,_shortened": "as §1"}, "Hs578T [10]": {"test_system": "Hs578T", "test": "normalised response (% of control), CellTiter-Glo; higher = more viable cells (100 = DMSO, 0 = benzethonium chloride kill control)", "procedure,_shortened": "as §1"}, "MCF-10A [11]": {"test_system": "MCF-10A", "test": "normalised response (% of control), CellTiter-Glo; higher = more viable cells (100 = DMSO, 0 = benzethonium chloride kill control)", "procedure,_shortened": "as §1"}, "BT-474 [12]": {"test_system": "BT-474", "test": "normalised response (% of control), CellTiter-Glo; higher = more viable cells (100 = DMSO, 0 = benzethonium chloride kill control)", "procedure,_shortened": "as §1"}, "BT-549 [13]": {"test_system": "BT-549", "test": "normalised response (% of control), CellTiter-Glo; higher = more viable cells (100 = DMSO, 0 = benzethonium chloride kill control)", "procedure,_shortened": "as §1"}, "MFM-223 [14]": {"test_system": "MFM-223", "test": "normalised response (% of control), CellTiter-Glo; higher = more viable cells (100 = DMSO, 0 = benzethonium chloride kill control)", "procedure,_shortened": "as §1"}, "HCC1937 [15]": {"test_system": "HCC1937", "test": "normalised response (% of control), CellTiter-Glo; higher = more viable cells (100 = DMSO, 0 = benzethonium chloride kill control)", "procedure,_shortened": "as §1"}, "HCC1599 [16]": {"test_system": "HCC1599", "test": "normalised response (% of control), CellTiter-Glo; higher = more viable cells (100 = DMSO, 0 = benzethonium chloride kill control)", "procedure,_shortened": "as §1"}, "CAL-85-1 [17]": {"test_system": "CAL-85-1", "test": "normalised response (% of control), CellTiter-Glo; higher = more viable cells (100 = DMSO, 0 = benzethonium chloride kill control)", "procedure,_shortened": "as §1"}, "HCC1143 [18]": {"test_system": "HCC1143", "test": "normalised response (% of control), CellTiter-Glo; higher = more viable cells (100 = DMSO, 0 = benzethonium chloride kill control)", "procedure,_shortened": "as §1"}, "MDA-MB-436 [19]": {"test_system": "MDA-MB-436", "test": "normalised response (% of control), CellTox Green; higher = less cell death (100 = DMSO, 0 = benzethonium chloride kill control)", "procedure,_shortened": "as §1"}, "DU-4475 [20]": {"test_system": "DU-4475", "test": "normalised response (% of control), CellTox Green; higher = less cell death (100 = DMSO, 0 = benzethonium chloride kill control)", "procedure,_shortened": "as §1"}, "HDQ-P1 [21]": {"test_system": "HDQ-P1", "test": "normalised response (% of control), CellTox Green; higher = less cell death (100 = DMSO, 0 = benzethonium chloride kill control)", "procedure,_shortened": "as §1"}, "MDA-MB-468 [22]": {"test_system": "MDA-MB-468", "test": "normalised response (% of control), CellTox Green; higher = less cell death (100 = DMSO, 0 = benzethonium chloride kill control)", "procedure,_shortened": "as §1"}, "MDA-MB-453 [23]": {"test_system": "MDA-MB-453", "test": "normalised response (% of control), CellTox Green; higher = less cell death (100 = DMSO, 0 = benzethonium chloride kill control)", "procedure,_shortened": "as §1"}, "CAL-120 [24]": {"test_system": "CAL-120", "test": "normalised response (% of control), CellTox Green; higher = less cell death (100 = DMSO, 0 = benzethonium chloride kill control)", "procedure,_shortened": "as §1"}, "CAL-148 [25]": {"test_system": "CAL-148", "test": "normalised response (% of control), CellTox Green; higher = less cell death (100 = DMSO, 0 = benzethonium chloride kill control)", "procedure,_shortened": "as §1"}, "CAL-51 [26]": {"test_system": "CAL-51", "test": "normalised response (% of control), CellTox Green; higher = less cell death (100 = DMSO, 0 = benzethonium chloride kill control)", "procedure,_shortened": "as §1"}, "MDA-MB-231 [27]": {"test_system": "MDA-MB-231", "test": "normalised response (% of control), CellTox Green; higher = less cell death (100 = DMSO, 0 = benzethonium chloride kill control)", "procedure,_shortened": "as §1"}, "Hs578T [28]": {"test_system": "Hs578T", "test": "normalised response (% of control), CellTox Green; higher = less cell death (100 = DMSO, 0 = benzethonium chloride kill control)", "procedure,_shortened": "as §1"}, "MCF-10A [29]": {"test_system": "MCF-10A", "test": "normalised response (% of control), CellTox Green; higher = less cell death (100 = DMSO, 0 = benzethonium chloride kill control)", "procedure,_shortened": "as §1"}, "BT-474 [30]": {"test_system": "BT-474", "test": "normalised response (% of control), CellTox Green; higher = less cell death (100 = DMSO, 0 = benzethonium chloride kill control)", "procedure,_shortened": "as §1"}, "BT-549 [31]": {"test_system": "BT-549", "test": "normalised response (% of control), CellTox Green; higher = less cell death (100 = DMSO, 0 = benzethonium chloride kill control)", "procedure,_shortened": "as §1"}, "MFM-223 [32]": {"test_system": "MFM-223", "test": "normalised response (% of control), CellTox Green; higher = less cell death (100 = DMSO, 0 = benzethonium chloride kill control)", "procedure,_shortened": "as §1"}, "HCC1937 [33]": {"test_system": "HCC1937", "test": "normalised response (% of control), CellTox Green; higher = less cell death (100 = DMSO, 0 = benzethonium chloride kill control)", "procedure,_shortened": "as §1"}, "HCC1599 [34]": {"test_system": "HCC1599", "test": "normalised response (% of control), CellTox Green; higher = less cell death (100 = DMSO, 0 = benzethonium chloride kill control)", "procedure,_shortened": "as §1"}, "CAL-85-1 [35]": {"test_system": "CAL-85-1", "test": "normalised response (% of control), CellTox Green; higher = less cell death (100 = DMSO, 0 = benzethonium chloride kill control)", "procedure,_shortened": "as §1"}, "HCC1143 [36]": {"test_system": "HCC1143", "test": "normalised response (% of control), CellTox Green; higher = less cell death (100 = DMSO, 0 = benzethonium chloride kill control)", "procedure,_shortened": "as §1"}}, "data": [{"compound": "COC(=O)C[C@](O)(CCCC(C)(C)O)C(=O)O[C@@H]1C(OC)=C[C@]23CCCN2CCc2cc4c(cc2[C@H]13)OCO4", "note": "[Omacetaxine] (1000 nM)", "values": [{"measurement": "normalised response", "setting": "MDA-MB-436 [1]", "value": 17.2, "unit": "%"}, {"measurement": "normalised response", "setting": "DU-4475 [2]", "value": 25, "unit": "%"}, {"measurement": "normalised response", "setting": "HDQ-P1 [3]", "value": 23.1, "unit": "%"}, {"measurement": "normalised response", "setting": "SK-BR-3", "value": 12.6, "unit": "%"}, {"measurement": "normalised response", "setting": "MDA-MB-468 [4]", "value": 4.18, "unit": "%"}, {"measurement": "normalised response", "setting": "MDA-MB-453 [5]", "value": 48.8, "unit": "%"}, {"measurement": "normalised response", "setting": "CAL-120 [6]", "value": 26.9, "unit": "%"}, {"measurement": "normalised response", "setting": "CAL-148 [7]", "value": 32, "unit": "%"}, {"measurement": "normalised response", "setting": "CAL-51 [8]", "value": 10.1, "unit": "%"}, {"measurement": "normalised response", "setting": "MDA-MB-231 [9]", "value": 9.47, "unit": "%"}, {"measurement": "normalised response", "setting": "Hs578T [10]", "value": 2, "unit": "%"}, {"measurement": "normalised response", "setting": "MCF-10A [11]", "value": 11.3, "unit": "%"}, {"measurement": "normalised response", "setting": "BT-474 [12]", "value": 26.4, "unit": "%"}, {"measurement": "normalised response", "setting": "BT-549 [13]", "value": 7.92, "unit": "%"}, {"measurement": "normalised response", "setting": "MFM-223 [14]", "value": 14.4, "unit": "%"}, {"measurement": "normalised response", "setting": "HCC1937 [15]", "value": 25.8, "unit": "%"}, {"measurement": "normalised response", "setting": "HCC1599 [16]", "value": 8.63, "unit": "%"}, {"measurement": "normalised response", "setting": "CAL-85-1 [17]", "value": 0.88, "unit": "%"}, {"measurement": "normalised response", "setting": "HCC1143 [18]", "value": 14.5, "unit": "%"}, {"measurement": "normalised response", "setting": "MDA-MB-436 [19]", "value": 104, "unit": "%"}, {"measurement": "normalised response", "setting": "DU-4475 [20]", "value": 97.7, "unit": "%"}, {"measurement": "normalised response", "setting": "HDQ-P1 [21]", "value": 74.8, "unit": "%"}, {"measurement": "normalised response", "setting": "MDA-MB-468 [22]", "value": 67.1, "unit": "%"}, {"measurement": "normalised response", "setting": "MDA-MB-453 [23]", "value": 115, "unit": "%"}, {"measurement": "normalised response", "setting": "CAL-120 [24]", "value": 91.4, "unit": "%"}, {"measurement": "normalised response", "setting": "CAL-148 [25]", "value": 93.1, "unit": "%"}, {"measurement": "normalised response", "setting": "CAL-51 [26]", "value": 111, "unit": "%"}, {"measurement": "normalised response", "setting": "MDA-MB-231 [27]", "value": 66.4, "unit": "%"}, {"measurement": "normalised response", "setting": "Hs578T [28]", "value": 60.2, "unit": "%"}, {"measurement": "normalised response", "setting": "MCF-10A [29]", "value": 33.5, "unit": "%"}, {"measurement": "normalised response", "setting": "BT-474 [30]", "value": 93.7, "unit": "%"}, {"measurement": "normalised response", "setting": "BT-549 [31]", "value": 52.6, "unit": "%"}, {"measurement": "normalised response", "setting": "MFM-223 [32]", "value": 36, "unit": "%"}, {"measurement": "normalised response", "setting": "HCC1937 [33]", "value": 24.1, "unit": "%"}, {"measurement": "normalised response", "setting": "HCC1599 [34]", "value": 85.7, "unit": "%"}, {"measurement": "normalised response", "setting": "CAL-85-1 [35]", "value": 4.24, "unit": "%"}, {"measurement": "normalised response", "setting": "HCC1143 [36]", "value": 108, "unit": "%"}]}]}
